Source: patent US4443436A, “C-20-Modified macrolide derivatives of the macrolide antibiotics tylosin, desmycosin, macrocin, and lactenocin” (Eli Lilly and Company, priority 1982, dated 1984)
≈ marks a conversion by molar mass, not a printed value. Where two headings read alike, the source gives them in different places.

How the values were obtained:
Mycoplasma hyopneumoniae = test: MIC, broth-dilution microtiter test, Mycoplasma hyopneumoniae; assay type: cell-based; conditions: Mesomycoplasma hyopneumoniae; Mycoplasma hyopneumoniae; broth-dilution microtiter; read-out: MIC
From the text: (§1) The MIC's in Table X were obtained using conventional broth-dilution microtiter tests.

[1] = tested on: Staphylococcus epidermidis EPI1; test: MIC, standard agar-dilution assay, Staphylococcus epidermidis EPI1; assay type: cell-based
[2] = tested on: Staphylococcus aureus S13E; test: MIC, standard agar-dilution assay, Staphylococcus aureus S13E; assay type: cell-based; conditions: Staphylococcus aureus, S13E
[3] = tested on: Staphylococcus epidermidis EPI2; test: MIC, standard agar-dilution assay, Staphylococcus epidermidis EPI2; assay type: cell-based
[4] = tested on: Staphylococcus aureus X1.1; test: MIC, standard agar-dilution assay, Staphylococcus aureus X1.1; assay type: cell-based
[5] = tested on: Pasteurella hemolytica 22C; test: MIC, broth-dilution microtiter test, Pasteurella hemolytica 22C; assay type: cell-based
From the text: as §1

[6] = tested on: Staphylococcus aureus V41; test: MIC, standard agar-dilution assay, Staphylococcus aureus V41; assay type: cell-based
Staphylococcus aureus = test: MIC, broth-dilution microtiter test, Staphylococcus aureus; assay type: cell-based
From the text: as §1

[7] = tested on: Streptococcus pyogenes C203; test: MIC, standard agar-dilution assay, Streptococcus pyogenes C203; assay type: cell-based
[8] = tested on: Streptococcus Group D X66; test: MIC, standard agar-dilution assay, Streptococcus Group D X66; assay type: cell-based
Mycoplasma hyorhinis = test: MIC, broth-dilution microtiter test, Mycoplasma hyorhinis; assay type: cell-based; conditions: Mycoplasma
From the text: as §1

[9] = tested on: Staphylococcus aureus X400; test: MIC, standard agar-dilution assay, Staphylococcus aureus X400; assay type: cell-based
Pasteurella multocida [10] = test: Subcutaneous treatment of Pasteurella multocida-infected chicks; assay type: in vivo, one-day-old chicks
Procedure: (§2) Many of the C-20 modified derivatives of this invention have also shown in vivo antibacterial activity against infections induced by gram-negative bacteria. Tables XII and XIII summarize the results of tests in which illustrative compounds were evaluated against Pasteurella infection in one-day-old chicks. The compounds were administered parenterally or orally after challenge of the chicks with Pasteurella multocida (0.1 ml of a 10^-4 dilution of a twenty-hour tryptose broth culture of an avian P. multocida given subcutaneously). In these tests, unless indicated otherwise, all non-medicated infected chicks died within 24 hours of Pasteurella challenge. In the tests summarized in Table XII the compounds were administered by subcutaneous injection at a dosage of 30 mg/kg, 1 and 4 hours post-challenge of the chicks with P. multocida. In the test summarized in Table XIII the compounds were administered by gavage at 1 and 5 hours post-challenge of the chicks with P. multocida.

[11] = tested on: Haemophilus influenzae Holt; test: MIC, standard agar-dilution assay, Haemophilus influenzae Holt; assay type: cell-based
[12] = tested on: Haemophilus influenzae R252; test: MIC, standard agar-dilution assay, Haemophilus influenzae R252; assay type: cell-based
Mycoplasma gallisepticum = test: MIC, broth-dilution microtiter test, Mycoplasma gallisepticum; assay type: cell-based; conditions: Mycoplasmoides gallisepticum
From the text: as §1

[13] = tested on: Pasteurella multocida 17E; test: MIC, broth-dilution microtiter test, Pasteurella multocida 17E; assay type: cell-based
From the text: as §1

[14] = tested on: Pasteurella multocida 60A; test: MIC, broth-dilution microtiter test, Pasteurella multocida 60A; assay type: cell-based
From the text: as §1

Pasteurella multocida [15] = test: Oral (gavage) treatment of Pasteurella multocida-infected chicks; assay type: in vivo, one-day-old chicks
Procedure: as §2

[16] = tested on: Streptococcus pneumoniae Park I; test: microbe, parasite or virus in culture; assay type: cell-based; conditions: Streptococcus pneumoniae
Streptococcus bovis 80 = test: MIC, broth-dilution microtiter test, Streptococcus bovis 80; assay type: cell-based; conditions: Streptococcus equinus
From the text: as §1

Mycoplasma synoviae = test: MIC, broth-dilution microtiter test, Mycoplasma synoviae; assay type: cell-based; conditions: Mycoplasmopsis synoviae
From the text: as §1

[17] = tested on: Streptococcus pyogenes C203; test: In vivo protection of mice experimentally infected with S. pyogenes C203; conditions: Streptococcus pyogenes, mice, doses given 1 and 4 hours post-infection
Procedure: The C-20 modified derivatives of this invention have shown in vivo antimicrobial activity against experimentally-induced infections in laboratory animals. When two doses of test compound were administered to mice experimentally infected with S. pyogenes C203, the activity observed was measured as an ED50 value [effective dose in mg/kg to protect 50% of the test animals: see Warren Wick, et al., J. Bacteriol. 81, 233-235 (1961)].

Streptococcus Group 9960 = test: MIC, standard agar-dilution assay, Streptococcus Group 9960; assay type: cell-based; conditions: GROUP9960
[18] = Staphylococcus epidermidis, EPI1
[19] = Staphylococcus epidermidis EPI2, agar dilution, read-out: MIC
[20] = Staphylococcus aureus X1.1, agar dilution, read-out: MIC
[21] = Pasteurella hemolytica 22C, broth-dilution microtiter, read-out: MIC
[22] = broth-dilution microtiter, read-out: MIC
[23] = Streptococcus pyogenes C203, agar dilution, read-out: MIC
[24] = Streptococcus Group D X66, agar dilution, read-out: MIC
[25] = Staphylococcus aureus X400, methicillin-resistant strain, agar dilution, read-out: MIC
[26] = 30 mg/kg × 2, 1 and 4 hours post-challenge
[27] = Haemophilus influenzae R252, ampicillin-resistant strain, read-out: MIC
[28] = Mycoplasma gallisepticum, broth-dilution microtiter, read-out: MIC
[29] = Pasteurella multocida 17E, bovine isolate, broth-dilution microtiter, read-out: MIC
[30] = Pasteurella multocida 60A, avian isolate, broth-dilution microtiter, read-out: MIC
[31] = Mycoplasma synoviae, broth-dilution microtiter, read-out: MIC
[32] = C203, sc, subcutaneous, read-out: ED50, Subcutaneous
[33] = C203, oral, read-out: ED50, Oral
[34] = 2.0 g/gal equivalent, 11/20 infected nonmedicated chicks died in this test

Structure (SMILES) | MIC (Mycoplasma hyopneumoniae) [µg/mL] | MIC [1, 18] [µg/mL] | MIC [2] [µg/mL] | MIC [3, 19] [µg/mL] | MIC [4, 20] [µg/mL] | MIC [5, 21] [µg/mL] | MIC (Staphylococcus aureus; [22]) [µg/mL] | MIC [7, 23] [µg/mL] | MIC [8, 24] [µg/mL] | MIC (Mycoplasma hyorhinis) [µg/mL] | MIC [9, 25] [µg/mL] | Number of Deaths/Number Treated (Pasteurella multocida [10]; [26]) | MIC [12, 27] [µg/mL] | MIC (Mycoplasma gallisepticum; [28]) [µg/mL] | MIC [13, 29] [µg/mL] | MIC [14, 30] [µg/mL] | Number of Deaths/Number tested (Pasteurella multocida [15]; 0.5 g/gal equivalent) | MIC [16] [µg/mL] | ED50 [17, 32] [mg/kg] | ED50 [17, 33] [mg/kg] | further results
CCC1OC(=O)CC(O)C(C)C(OC2OC(C)C(O)C(N(C)C)C2O)C(CCOC(C)=O)CC(C)C(=O)C=CC(C)=CC1COC1OC(C)C(O)C(OC)C1OC (centres unmarked) [Compound 29, 20-DH-20-O-Acetyldesmycosin] | 12.5 (≈ 15.3 µM) | 0.25 (≈ 0.306 µM) | 0.25 (≈ 0.306 µM) | 0.12 (≈ 0.147 µM) | 0.5 (≈ 0.613 µM) | 25 (≈ 30.6 µM) | 0.78 (≈ 0.956 µM) | 2 (≈ 2.45 µM) | 8 (≈ 9.8 µM) | 50 (≈ 61.3 µM) | 0.5 (≈ 0.613 µM) | 5/10 | 16 (≈ 19.6 µM) | 0.39 (≈ 0.478 µM) | 12.5 (≈ 15.3 µM) | 25 (≈ 30.6 µM) | 0/10 | 0.25 (≈ 0.306 µM) | 3.4 | 36 | MIC ([6]; Staphylococcus aureus V41, penicillin-resistant strain, agar dilution, read-out: MIC): 0.5 µg/mL (≈ 0.613 µM); MIC ([11]; Haemophilus influenzae Holt, ampicillin-sensitive strain, read-out: MIC): 16 µg/mL (≈ 19.6 µM); Number of Deaths/Number tested (Pasteurella multocida [15]; 1.0 g/gal equivalent): 3/10; MIC (Streptococcus bovis 80; Streptococcus bovis 80, broth-dilution microtiter, read-out: MIC): 0.78 µg/mL (≈ 0.956 µM); MIC (Mycoplasma synoviae; [31]): 1.56 µg/mL (≈ 1.91 µM)
CCC1OC(=O)CC(O)C(C)C(OC2OC(C)C(O)C(N(C)C)C2O)C(CC2SCCN2Cc2ccccc2)CC(C)C(=O)C=CC(C)=CC1COC1OC(C)C(O)C(OC)C1OC (centres unmarked) [Compound 77] | 0.19 (≈ 0.206 µM) | 0.25 (≈ 0.271 µM) | 0.25 (≈ 0.271 µM) | 0.12 (≈ 0.13 µM) |  |  | 0.39 (≈ 0.423 µM) |  |  | 6.25 (≈ 6.78 µM) |  |  |  | 0.09 (≈ 0.0977 µM) |  |  |  | 1 (≈ 1.09 µM) | > 10 | 19 | MIC ([4]; Staphylococcus aureus, X1.1): 0.25 µg/mL (≈ 0.271 µM); MIC ([5]; Pasteurella, 22C): 12.5 µg/mL (≈ 13.6 µM); MIC ([6]; Staphylococcus aureus, V41): 0.25 µg/mL (≈ 0.271 µM); MIC ([7]; Streptococcus pyogenes, C203): 0.25 µg/mL (≈ 0.271 µM); MIC [8]: 4 µg/mL (≈ 4.34 µM); MIC ([9]; Staphylococcus aureus, X400): 0.25 µg/mL (≈ 0.271 µM); Number of Deaths/Number Treated (Pasteurella multocida [10]; 30 mg/kg × 2, 8/10 and 9/10 of two groups of infected nonmedicated chicks died): 8/10; MIC ([11]; Haemophilus influenzae): 16 µg/mL (≈ 17.4 µM); MIC ([12]; Haemophilus influenzae, R252): 16 µg/mL (≈ 17.4 µM); MIC ([13]; Pasteurella multocida, 17E): 12.5 µg/mL (≈ 13.6 µM); MIC (Streptococcus Group 9960): 4 µg/mL (≈ 4.34 µM); MIC ([14]; Pasteurella multocida, 60A): 12.5 µg/mL (≈ 13.6 µM); Number of Deaths/Number tested (Pasteurella multocida [15]; [34]): 4/10; MIC (Streptococcus bovis 80; 80): 3.12 µg/mL (≈ 3.39 µM); MIC (Mycoplasma synoviae; [31]): 0.19 µg/mL (≈ 0.206 µM)
CCOC(=O)C1CSC(CC2CC(C)C(=O)C=CC(C)=CC(COC3OC(C)C(O)C(OC)C3OC)C(CC)OC(=O)CC(O)C(C)C2OC2OC(C)C(O)C(N(C)C)C2O)N1 (centres unmarked) [Compound 76] | 0.19 (≈ 0.21 µM) |  |  |  | 0.51 (≈ 0.565 µM) | 25 (≈ 27.7 µM) |  | 0.53 (≈ 0.587 µM) | 466 (≈ 516 µM) | 50 (≈ 55.4 µM) | 2400 (≈ 2660 µM) | 3/10 | 3250 (≈ 3600 µM) |  | 25 (≈ 27.7 µM) | 25 (≈ 27.7 µM) | 3/10 | 0.25 (≈ 0.277 µM) | 4.8 | 17 | MIC ([1]; Staphylococcus epidermidis EPI1, agar dilution, read-out: MIC): 0.51 µg/mL (≈ 0.565 µM); MIC ([3]; Staphylococcus epidermidis, EPI2): 0.25 µg/mL (≈ 0.277 µM); MIC ([6]; Staphylococcus aureus, V41): 0.5 µg/mL (≈ 0.554 µM); MIC (Staphylococcus aureus): 0.78 µg/mL (≈ 0.864 µM); MIC (Mycoplasma gallisepticum): 1.56 µg/mL (≈ 1.73 µM); Number of Deaths/Number tested (Pasteurella multocida [15]; 1.0 g/gal equivalent, 13/20 infected nonmedicated chicks died in this test): 4/10; Number of Deaths/Number tested (Pasteurella multocida [15]; [34]): 4/10; MIC (Streptococcus bovis 80; 80): 3.12 µg/mL (≈ 3.45 µM); MIC (Mycoplasma synoviae): 3.12 µg/mL (≈ 3.45 µM)
